Laboratory results reported in patent US12441679B2, “Acrylamide-substituted indane compounds and therapeutic use thereof” (Sanofi, priority 2020, dated 2025).

Test system: YAP1-TEAD and TAZ-TEAD activity (TEAD responsive promoter element)
Experiment: TEAD-Luciferase Reporter Assay (8XGTIIC-Luciferase construct stably integrated in tumor cell lines)
Format: cell-based, human
Conditions: 8XGTIIC-Luciferase reporter in tumor cell lines, 48 hrs compound treatment, 10 doses 1-10000 nM
Text: TEAD-Luciferase Reporter Assay
Luciferase-based gene reporter assays were used, employing the TEAD responsive promoter element that are stably integrated to different human tumor cell lines in order to monitor YAP1-TEAD and TAZ-TEAD activity and to study YAP1/TAZ-TEAD activity modulation by small molecule compounds. Luciferase-based gene reporter assays employing the GAPDH promoter element and stably integrated to different human tumor cell lines are used as counter screen control cell lines.
Tumor cell lines with stable integration of the 8XGTIIC-Luciferase construct (Dupont et al., Nature 2011) or the GAPDH-Luciferase control plasmid, are seeded in culture medium in 96-well plates at a density of 8000 cells/well. Following an overnight incubation in a 37° C., 5% CO2 growth chamber, cells are treated with compounds described above at 10 doses ranging between 1 and 10000 nM for 48 hrs. After compound incubation, cells are lysed with Bright-Glo Luciferase Assay System (Promega E2620) and luciferase activity is measured using a luminescent plate reader.
The inhibitory activity of the compounds with respect to luciferase activity is given by the concentration which inhibits 50% of activity of non-treated cells. IC50s are determined with a nonlinear regression model on XLfit software analysis (IDBS, UK).

| Structure (SMILES) | IC50 [nM] |
| --- | --- |
| C=CC(=O)Nc1ccc2c(c1)CCC2Nc1cccc(S(F)(F)(F)(F)F)c1 (stereo not drawn) [Example 54, N-(1-((3-(pentafluoro-I6-sulfanyl)phenyl)amino)-2,3-dihydro-1H-inden-5-yl)acrylamide] | 388 |

Same assay, conditions: Homo sapiens; 8XGTIIC-Luciferase reporter in tumor cell lines, 48 hrs compound treatment, 10 doses 1-10000 nM

| Structure (SMILES) | IC50 [nM] |
| --- | --- |
| C=CC(=O)Nc1ccc2c(c1)C(Oc1ccc(C(F)(F)F)cc1)CC2 (stereo not drawn) [Example 37, N-(3-(4-(trifluoromethyl)phenoxy)-2,3-dihydro-1H-inden-5-yl)acrylamide] | 24 |
| C=CC(=O)Nc1ccc2c(c1)C(O[C@H]1CC[C@H](C(F)(F)F)CC1)CC2 (relative stereo) [Example 36, N-(3-(((trans)-4-(trifluoromethyl)cyclohexyl)oxy)-2,3-dihydro-1H-inden-5-yl)acrylamide] | 99 |
| C=CC(=O)Nc1ccc2c(c1)C[C@H](Nc1cccc(F)c1)C2 (single isomer, unassigned) [Example 49] | 105 |
| C=CC(=O)Nc1ccc2c(c1)CCC2Nc1cc(F)cc(F)c1 (stereo not drawn) [Example 9, N-(1-((3,5-difluorophenyl)amino)-2,3-dihydro-1H-inden-5-yl)acrylamide] | 167 |
| C=CC(=O)Nc1ccc2c(c1)CCC2Nc1cccc(C(F)(F)F)n1 (stereo not drawn) [Example 60, N-(1-((6-(trifluoromethyl)pyridin-2-yl)amino)-2,3-dihydro-1H-inden-5-yl)acrylamide] | 346 |
| C=CC(=O)Nc1ccc2c(c1)CC[C@@H]2Nc1cc(C(F)(F)F)ccn1 (single isomer, unassigned) [Example 57] | 134 |
| C=CC(=O)Nc1ccc2c(c1)CCC2Nc1cccc(F)c1 (stereo not drawn) [Example 8, N-(1-((3-fluorophenyl)amino)-2,3-dihydro-1H-inden-5-yl)acrylamide] | 132 |
| C=CC(=O)Nc1ccc2c(c1)CC(Nc1cccc(F)c1)C2 (stereo not drawn) [Example 31, N-(2-((3-fluorophenyl)amino)-2,3-dihydro-1H-inden-5-yl)acrylamide] | 20 |
| C=CC(=O)Nc1ccc2c(c1)CCC2Oc1cccc(OC(F)(F)F)c1 (stereo not drawn) [Example 46, N-(1-(3-(trifluoromethoxy)phenoxy)-2,3-dihydro-1H-inden-5-yl)acrylamide] | 4560 |
| C=CC(=O)Nc1ccc2c(c1)C(Nc1ccc(F)cc1)CC2 (stereo not drawn) [Example 15, N-(3-((4-fluorophenyl)amino)-2,3-dihydro-1H-inden-5-yl)acrylamide] | 48 |
| C=CC(=O)Nc1ccc2c(c1)CCC2N(C)c1cccc(C(F)(F)F)c1 (stereo not drawn) [Example 62, N-(1-(methyl(3-(trifluoromethyl)phenyl)amino)-2,3-dihydro-1H-inden-5-yl)acrylamide] | 70 |
| C=CC(=O)Nc1ccc2c(c1)CC(N[C@H]1CC[C@H](C(F)(F)F)CC1)C2 (relative stereo) [Example 27, N-(2-(((trans)-4-(trifluoromethyl)cyclohexyl)amino)-2,3-dihydro-1H-inden-5-yl)acrylamide] | > 10000 |
| C=CC(=O)Nc1ccc2c(c1)C[C@@H](Nc1cccc(F)c1)C2 (single isomer, unassigned) [Example 48] | 69 |
| C=CC(=O)Nc1ccc2c(c1)CCC2Nc1ccc(F)nc1 (stereo not drawn) [Example 19, N-(1-((6-fluoropyridin-3-yl)amino)-2,3-dihydro-1H-inden-5-yl)acrylamide] | 503 |
| C=CC(=O)Nc1ccc2c(c1)C(Oc1ccccc1)CC2 (stereo not drawn) [Example 38, N-(3-phenoxy-2,3-dihydro-1H-inden-5-yl)acrylamide] | 74 |
| C=CC(=O)Nc1ccc2c(c1)CC[C@H]2Nc1ccc(C(F)(F)F)cc1 (single isomer, unassigned) [Example 55] | 38 |
| C=CC(=O)Nc1ccc2c(c1)CCC2Nc1ccc(F)c(F)c1 (stereo not drawn) [Example 16, N-(1-((3,4-difluorophenyl)amino)-2,3-dihydro-1H-inden-5-yl)acrylamide] | 38 |
| C=CC(=O)Nc1ccc2c(c1)CC(Nc1ccc(C(F)(F)F)cc1)C2 (stereo not drawn) [Example 52, N-[2-[4-(trifluoromethyl)anilino]-2,3-dihydro-1H-inden-5-yl]acrylamide] | 2820 |
| C=CC(=O)Nc1ccc2c(c1)CCC2Nc1ccc(F)cn1 (stereo not drawn) [Example 21, N-(1-((5-fluoropyridin-2-yl)amino)-2,3-dihydro-1H-inden-5-yl)acrylamide] | 262 |
| C=CC(=O)Nc1ccc2c(c1)CCC2Nc1cccc(C(F)(F)F)c1 (stereo not drawn) [Example 1, N-(1-((3-(trifluoromethyl)phenyl)amino)-2,3-dihydro-1H-inden-5-yl)acrylamide] | 72 |
| C=CC(=O)N(C)c1ccc2c(c1)CCC2Nc1cccc(C(F)(F)F)c1 (stereo not drawn) [Example 4, N-methyl-N-(1-((3-(trifluoromethyl)phenyl)amino)-2,3-dihydro-1H-inden-5-yl)acrylamide] | 142 |
| C=CC(=O)Nc1ccc2c(c1)CCC2NCc1cccc(C(F)(F)F)c1 (stereo not drawn) [Example 24, N-(1-((3-(trifluoromethyl)benzyl)amino)-2,3-dihydro-1H-inden-5-yl)acrylamide] | 8040 |
| C=CC(=O)Nc1ccc2c(c1)CCC2Nc1cncc(C(F)(F)F)c1 (stereo not drawn) [Example 61, N-(1-((5-(trifluoromethyl)pyridin-3-yl)amino)-2,3-dihydro-1H-inden-5-yl)acrylamide] | 178 |
| C=CC(=O)Nc1ccc2c(c1)C(Oc1cccc(C(F)(F)F)c1)CC2 (stereo not drawn) [Example 39, N-(3-(3-(trifluoromethyl)phenoxy)-2,3-dihydro-1H-inden-5-yl)acrylamide] | 53 |
| C=CC(=O)Nc1ccc2c(c1)CC(NCCCC(F)(F)F)C2 (stereo not drawn) [Example 29, N-(2-((4,4,4-trifluorobutyl)amino)-2,3-dihydro-1H-inden-5-yl)acrylamide] | > 10000 |
| C=CC(=O)Nc1ccc2c(c1)CCC2Nc1cccc(OC)c1 (stereo not drawn) [Example 17, N-(1-((3-methoxyphenyl)amino)-2,3-dihydro-1H-inden-5-yl)acrylamide] | > 10000 |

Other lines, results leading:

| IC50 [nM] | Structure (SMILES) |
| --- | --- |
| 117 | C=CC(=O)Nc1ccc2c(c1)C(Oc1cccc(C3CC3)c1)CC2 (stereo not drawn) [Example 81, N-(3-(3-cyclopropylphenoxy)-2,3-dihydro-1H-inden-5-yl)acrylamide] |
| 51 | C=CC(=O)Nc1ccc2c(c1)C(Oc1ccc(C(F)(F)F)cn1)CC2 (stereo not drawn) [Example 88, N-[3-[[5-(trifluoromethyl)pyridin-2-yl]oxy]-2,3-dihydro-1H-inden-5-yl]acrylamide] |
| 777 | C=CC(=O)N(C)c1ccc2c(c1)CCC2OC1CCC(C(F)(F)F)CC1 (stereo not drawn) [Example 76, N-methyl-N-(1-((4-(trifluoromethyl)cyclohexyl)oxy)-2,3-dihydro-1H-inden-5-yl)acrylamide] |
| 861 | C=CC(=O)Nc1ccc2c(c1)C(OCCCCC(F)(F)F)CC2 (stereo not drawn) [Example 72, N-(3-((5,5,5-trifluoropentyl)oxy)-2,3-dihydro-1H-inden-5-yl)acrylamide] |
| 290 | C=CC(=O)Nc1ccc2c(c1F)CCC2Nc1ccc(C(F)(F)F)cc1 (stereo not drawn) [Example 68, N-[4-fluoro-1-[4-(trifluoromethyl)anilino]-2,3-dihydro-1H-inden-5-yl]acrylamide] |
| 144 | C=CC(=O)Nc1ccc2c(c1)CCC2N(C)c1ccccc1 (stereo not drawn) [Example 63, N-(1-(methyl(phenyl)amino)-2,3-dihydro-1H-inden-5-yl)acrylamide] |
| 109 | C=CC(=O)N(C)c1ccc2c(c1)CCC2Oc1ccc(C(F)(F)F)cc1 (stereo not drawn) [Example 83, N-methyl-N-(1-(4-(trifluoromethyl)phenoxy)-2,3-dihydro-1H-inden-5-yl)acrylamide] |
| 820 | C=CC(=O)Nc1ccc2c(c1)C(OC1CCC(C(F)(F)F)C1)CC2 (stereo not drawn) [Example 71, N-(3-((3-(trifluoromethyl)cyclopentyl)oxy)-2,3-dihydro-1H-inden-5-yl)acrylamide] |
| 95 | C=CC(=O)Nc1ccc2c(c1)C(Oc1ccc(C(F)(F)F)cc1)C(F)C2 (stereo not drawn) [Example 92, N-[2-fluoro-3-[4-(trifluoromethyl)phenoxy]-2,3-dihydro-1H-inden-5-yl]acrylamide] |
| 84 | C=CC(=O)Nc1ccc2c(c1)C(Nc1ccc(C(F)(F)F)cc1)C(F)C2 (stereo not drawn) [Example 90, N-[2-fluoro-3-[4-(trifluoromethyl)anilino]-2,3-dihydro-1H-inden-5-yl]acrylamide] |
| 349 | C=CC(=O)N(C)c1ccc2c(c1)CCC2Nc1ccc(C(F)(F)F)cc1 (stereo not drawn) [Example 69, N-methyl-N-(1-((4-(trifluoromethyl)phenyl)amino)-2,3-dihydro-1H-inden-5-yl)acrylamide] |
| 56 | C=CC(=O)Nc1ccc2c(c1)C(Oc1ccc(Cl)cc1)CC2 (stereo not drawn) [Example 77, N-(3-(4-chlorophenoxy)-2,3-dihydro-1H-inden-5-yl)acrylamide] |
| 1060 | C=CC(=O)N(C)c1ccc2c(c1)CCC2Oc1cccc(C(F)(F)F)c1 (stereo not drawn) [Example 89, N-methyl-N-(1-(3-(trifluoromethyl)phenoxy)-2,3-dihydro-1H-inden-5-yl)acrylamide] |
| 53 | C=CC(=O)Nc1cc(F)c2c(c1)CCC2Nc1cccc(C(F)(F)F)c1 (stereo not drawn) [Example 67, N-[7-fluoro-1-[3-(trifluoromethyl)anilino]-2,3-dihydro-1H-inden-5-yl]acrylamide] |
| 134 | C=CC(=O)Nc1ccc2c(c1)[C@@H](Oc1ccc(C(F)(F)F)cc1)CC2 (single isomer, unassigned) [Example 86] |
